This assay relates to Spodoptera litura. Description: Test for embryos of Spodoptera litura (sweet potato leaf dip). Format: in vivo. The conditions noted are these: effective ingredient concentration 20 ppm; 3 instar, sweet potato leaves immersed; dead counted after 7 days, 25° C. The method, then:
Preparation of Sample Drug Solution
1 Part by weight of the active compound was mixed with the above-mentioned amount of a solvent containing the above-mentioned amount of emulsifier in order to prepare the formulation of an appropriate active compound, and the mixture was diluted with water to a predetermined concentration.
The leaves of sweet potato were immersed in a sample drug solution which was diluted with water to a predetermined concentration and charged in a petri dish with a diameter of 9 cm after drying the drug solution. 10 of embryos with 3 instar of Spodoptera litura were dropped thereto, the petri dish was placed in a constant temperature chamber at 25° C., the leaves of sweet potato were additionally added after 2 days and 4 days and the number of dead embryos was examined after 7 days to calculate an insecticidal rate.
In the present test, the result of 2 petri dishes per one partition was averaged.

As for `Cc1cc(C(F)(C(F)(F)F)C(F)(F)F)cc(C)c1NC(=O)c1csc(NC(=O)c2cccc(Cl)c2)n1` [compound 67, 2-(3-chlorobenzoyl)amino-N-(2,6-dimethyl-4-heptafluoro-isopropylphenyl)-1,3-thiazole-4-carboxamide], the insecticidal rate is on record as 100%.

In the case of `Cc1cc(C(F)(C(F)(F)F)C(F)(F)F)cc(C)c1NC(=O)c1csc(NC(=O)c2ccccc2Cl)n1` [compound 34, 2-(2-chlorobenzoyl)amino-N-(2,6-dimethyl-4 heptafluoroisopropylphenyl)-1,3-thiazole-4-carboxamide], the insecticidal rate amounted to 100%.

The values are drawn from patent US7799738B2, “Insecticidal 2-acylaminothiazole-4-carboxamides” (Bayer CropScience AG, priority 2005, dated 2010).
